Data set [1] is described as follows: Analysis and comparison of properties: hygroscopicity. The class given is physicochemical. The conditions noted are these: solid forms prepared from crude ergothioneine. How it is done: (§1) X-ray diffraction (XRD), differential scanning calorimetry (DSC), elemental analysis, particle size analysis, quantitative nuclear magnetic resonance (NMR), Raman spectroscopy, infrared spectroscopy (IR), TGA, IPC-MS, DVS and other tests were carried out on the crystal forms prepared in the Examples.
(§2) Using crude ergothioneine as raw material, three crystal forms A, B and C were prepared respectively, and their properties were compared with those of amorphous ergothioneine.

Data set [2] in a line: Analysis and comparison of properties: moisture. It is filed as physicochemical. The conditions noted are these: solid forms prepared from crude ergothioneine. As for the experimental part: as §1, §2
Setting [3] is: listed as amorphous ergothioneine.

For `C[N+](C)(C)[C@@H](Cc1c[nH]c(=S)[nH]1)C(=O)[O-]` [Amorphous, ergothioneine], the results for the Hygroscopicity entry in data set [1] and in data set [1] (setting [3]) were “Easily” and “strong hygroscopicity”, respectively. For the same compound, the “Moisture (%)” value in data set [2] and in data set [2] (setting [3]) was 1.29% each time.

For the compound `C[N+](C)(C)[C@@H](Cc1c[nH]c(=S)[nH]1)C(=O)[O-]` [Crystal form A, ergothioneine], the Hygroscopicity result in data set [1] was “Stable”. The “Moisture (%)” value in data set [2] worked out at 0.07%.

In the case of `C[N+](C)(C)[C@@H](Cc1c[nH]c(=S)[nH]1)C(=O)[O-]` [Crystal form B, ergothioneine], the Hygroscopicity entry in data set [1] is “Stable”. Besides, the “Moisture (%)” value in data set [2] was determined as 0.10%.

Regarding `C[N+](C)(C)[C@@H](Cc1c[nH]c(=S)[nH]1)C(=O)[O-]` [Crystal form C, ergothioneine], the Hygroscopicity entry in data set [1] is on record as “Stable”. In data set [2], the “Moisture (%)” value was 0.09%.

(Values after patent US20260085049A1, “CRYSTAL FORM OF ERGOTHIONEINE” (NANJING NUTRABUILDING BIO-TECH CO., LTD., priority 2023, published 2026).)
